Assay results published in ChEMBL document CHEMBL1201862, “PubChem BioAssay data set” (2004).
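1) Cells in 96-well plates. 2) Compound, 48 h, 5 concentrations. 3) Linear interpolation between surrounding doses. 4) Unreached endpoint = highest concentration. The concentration for 50% growth inhibition is given as GI50.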 The source made the active and inactive calls. Rule as the data show it: active = GI50 up to about 1.1 µM and inactive = higher.

Experiments:
Experiment in all cases: NCI tumour cell line growth inhibition, 48 h
COLO 205 = test system: COLO 205
OVCAR-4 = test system: OVCAR-4
KM12 = test system: KM12
K562 = test system: K562
UACC-62 = test system: UACC-62
MCF7 = test system: MCF7
CAKI-1 = test system: CAKI-1
SK-OV-3 = test system: SK-OV-3
MDA-MB-231 = test system: MDA-MB-231
U-251 = test system: U-251
786-0 = test system: 786-0
RPMI-8226 = test system: RPMI-8226
OVCAR-8 = test system: OVCAR-8
HCT-116 = test system: HCT-116
UO-31 = test system: UO-31
NCI-H23 = test system: NCI-H23
OVCAR-3 = test system: OVCAR-3
HOP-62 = test system: HOP-62
SF-539 = test system: SF-539

Measured: GI50

Cc1c2n(c3ccccc13)S(=O)(=O)c1ccccc1-2
inactive: COLO 205 > 100 µM | OVCAR-4 17.2 µM | KM12 > 100 µM | K562 > 100 µM | UACC-62 28.1 µM | MCF7 28.9 µM | CAKI-1 12.3 µM | SK-OV-3 14.6 µM | MDA-MB-231 17.8 µM | U-251 18.4 µM | 786-0 10.1 µM | RPMI-8226 > 100 µM | OVCAR-8 21.2 µM | HCT-116 21.2 µM | UO-31 18.4 µM | NCI-H23 23.2 µM | OVCAR-3 45.9 µM

CCCCCc1c(Cl)nc(Cl)nc1Cl
inactive: COLO 205 7.85 µM | OVCAR-4 16.1 µM | HOP-62 22.6 µM | KM12 13.9 µM | K562 2.18 µM | UACC-62 15.3 µM | MCF7 10.2 µM | CAKI-1 2.88 µM | SK-OV-3 10.5 µM | MDA-MB-231 5.69 µM | SF-539 16 µM | U-251 9.27 µM | 786-0 3.67 µM | RPMI-8226 3.03 µM | OVCAR-8 10.4 µM | HCT-116 3.82 µM | UO-31 18.5 µM | NCI-H23 3.18 µM | OVCAR-3 14.4 µM

O=C1C2=Nc3ccccc3C(O)N2c2ccccc21 (centres undefined)
inactive: COLO 205 39.2 µM | OVCAR-4 > 100 µM | HOP-62 65.3 µM | KM12 > 78.5 µM | K562 > 76 µM | UACC-62 3.51 µM | MCF7 11.1 µM | CAKI-1 48.4 µM | SK-OV-3 68.2 µM | MDA-MB-231 14.9 µM | SF-539 49.3 µM | U-251 > 52.5 µM | 786-0 36.6 µM | RPMI-8226 53.8 µM | OVCAR-8 32.3 µM | HCT-116 > 83.4 µM | UO-31 46.8 µM | NCI-H23 3.92 µM | OVCAR-3 11.6 µM

CC(C)CC(NP(=O)(O)OC1OC(C)C(O)C(O)C1O)C(=O)NC(Cc1c[nH]c2ccccc12)C(=O)O (centres undefined)
inactive: COLO 205 > 100 µM | OVCAR-4 > 100 µM | HOP-62 > 100 µM | KM12 > 100 µM | K562 > 100 µM | UACC-62 > 100 µM | MCF7 > 100 µM | CAKI-1 > 100 µM | SK-OV-3 > 100 µM | MDA-MB-231 > 100 µM | SF-539 > 100 µM | U-251 > 100 µM | 786-0 > 100 µM | RPMI-8226 > 100 µM | OVCAR-8 > 100 µM | HCT-116 > 100 µM | UO-31 > 100 µM | NCI-H23 > 100 µM | OVCAR-3 > 100 µM
